Reference: US9120787B2, “HIV replication inhibitors” (priority 2011, dated 2015)

Tests used:
HIV-1Ba-L [1] = test: HIV-1Ba-L replication in PBMCs (supernatant RT end-point); conditions: for IC50: Human immunodeficiency virus 1, PBMC, 168 h; for TI (TC50/IC50): HIV-1Ba-L in PBMCs
Description: Evaluation of Dihydropyrimidines vs. HIV-1Ba-L in Peripheral Blood Mononuclear Cells (PBMCs)
Cultures of pooled phytohemagglutinin stimulated peripheral blood mononuclear cells (PBMC) were seeded into a 96-well plate at plating density of 5×10^4 cells/well. Compounds were serially diluted into media in ½-log increments using a high test of […] and […] of each concentration (nine total concentrations). Cells were infected with HIV strains HIV-1Ba-L and NL4-3 at an MOI=0.1. The PBMCs were cultured for seven days in an humidified incubator maintained at 37° C., 5% CO2 atmosphere. At the assay end-point, the supernatant was collected and analyzed for reverse transcriptase activity. For the RT assay, tritiated thymidine triphosphate (3H-TTP, 80 Ci/mmol) was diluted 1:1 dH2O:Ethanol at 1 mCi/ml. Poly rA:oligo dT template:primer was prepared as a stock solution by combining 150 μl poly rA (20 mg/ml) with 0.5 mL oligo dT (20 units/ml) and 5.35 ml sterile dH2O followed by aliquoting (1.0 ml) and storage at −20° C. The RT reaction buffer contained of 125 ml 1.0 M EGTA, 125 ml dH2O, 125 ml 20% Triton X100, 50 ml 1.0 M Tris (pH 7.4), 50 ml 1.0 M DTT, and 40 ml 1.0 M MgCl2. The final reaction mixture was prepared by combining 1 part 3H-TTP, 4 parts dH2O, 2.5 parts poly rA:oligo dT stock and 2.5 parts reaction buffer. To each well, ten microliters of the reaction mixture and 15 μl of virus containing supernatant were added. The plates were incubated at 37° C. for 60 minutes. Following incubation, the reaction volume was spotted onto DE81 filter-mats, washed 5 times for 5 minutes each in a 5% sodium phosphate buffer or 2×SSC. […] were washed 2 times for 1 minute each in distilled water, 2 times for 1 minute each in 70% ethanol, and then dried. Incorporated radioactivity (counts per minute, CPM) was quantified using standard liquid scintillation techniques.

[2] = Cytotoxicity by MTS staining in uninfected MAGI-CCR5 cells; format: cell-based; conditions: human, read-out: TC50
Description: The anti-viral activity of dihydropyrimidines was shown by inhibition of virus replication in MAGI-CCR5 cells. MAGI-CCR5 cells are derived from HeLa-CD4-LTR-β-galactosidase cells. The cells have been engineered to express high levels of CD4 and CCR5 and contain one copy of the HIV-1 LTR promoter driving expression of the β-galactosidase gene upon HIV-1 Tat transactivation. On the day preceding the assay, the cells were plated at 1.0×10^4 cells per well and maintained at 37° C. and 5% CO2 in a humidified incubator. Total cell count and viability was visually assessed using a hemacytometer and trypan blue exclusion. Compounds were evaluated at six concentrations (triplicate wells/concentration). On the day of assay setup, compound dilutions were prepared at two-times (2×) the final concentrations. Media was decanted and wells were replenished with 50 μl of 2× compounds, followed by the addition of 50 μl of diluted virus. Identical uninfected assays were prepared for parallel cytotoxicity testing.

HIV-1Ba-L [3] = test: Inhibition of virus replication in MAGI-CCR5 cells (β-galactosidase reporter); format: cell-based; conditions: HIV-1Ba-L in MAGI-CCR5 cells; for IC50: Human immunodeficiency virus 1, 48 hours, β-galactosidase reporter expression, read-out: IC50
Description: The anti-viral activity of dihydropyrimidines was shown by inhibition of virus replication in MAGI-CCR5 cells. MAGI-CCR5 cells are derived from HeLa-CD4-LTR-β-galactosidase cells. The cells have been engineered to express high levels of CD4 and CCR5 and contain one copy of the HIV-1 LTR promoter driving expression of the β-galactosidase gene upon HIV-1 Tat transactivation. On the day preceding the assay, the cells were plated at 1.0×10^4 cells per well and maintained at 37° C. and 5% CO2 in a humidified incubator. Total cell count and viability was visually assessed using a hemacytometer and trypan blue exclusion.
Compounds were evaluated at six concentrations (triplicate wells/concentration). On the day of assay setup, compound dilutions were prepared at two-times (2×) the final concentrations. Media was decanted and wells were replenished with 50 μl of 2× compounds, followed by the addition of 50 μl of diluted virus. Identical uninfected assays were prepared for parallel cytotoxicity testing.
Evaluation of Dihydropyrimidines vs. HIV-1Ba-L in MAGI-CCR5 Cells

[4] = Cytotoxicity by MTS staining in PBMCs; format: cell-based; conditions: human, peripheral blood mononuclear cells (PBMC), MTS staining, read-out: TC50
Description: Cytotoxicity was assessed by MTS staining. At assay end-point, PBMC were stained with the addition of […] of the soluble tetrazolium-based dye MTS to determine cell viability and quantify compound toxicity. The plates were incubated 4 to 6 hrs at 37° C. Following incubation, the activity was assessed by reading absorbance values at 490/650 nm.

| Structure (SMILES) | IC50 (HIV-1Ba-L [1]) [µM] | CC50 at 48 h [2] [µM] | IC50 (HIV-1Ba-L [3]) [µM] | CC50 at 7 days [4] [µM] | TI (TC50/IC50) (HIV-1Ba-L [1]) | TI (TC50/IC50) (HIV-1Ba-L [3]) |
| --- | --- | --- | --- | --- | --- | --- |
| c1cc(CN2CCCNCCNCCCNCC2)ccc1CN1CCCNCCNCCCNCC1 [AMD 3100, reference compound] | > 10 | > 10 | > 10 | > 10 | – | – |
| CC1=C(c2nc(-c3ccc(C#N)cc3)cs2)C(c2ccc(Cl)nc2)NC(=O)N1 (stereo not shown) [Example 3] | < 1 | ≥ 100 | 1 to 5 | ≥ 100 | A (A = TI (TC50/IC50) ≧100.0) | A (A = TI (TC50/IC50) ≧ 100.0) |
| CC1=C(c2nc(-c3ccc(C#N)cc3)cs2)C(c2ccnc3ccccc23)NC(=O)N1 (stereo not shown) [Example 15] | 1 to 5 | ≥ 100 | 1 to 5 | ≥ 100 | B (B < 100.0-50.0) | B (B < 100.0-50.0) |
| CC1=C(c2nc(-c3ccc(C#N)cc3)cs2)C(c2ccc(=O)[nH]c2)NC(=O)N1 (stereo not shown) [Example 18] | > 100 | ≥ 100 | > 100 | ≥ 100 | D (D < 10.0) | D (D < 10.0) |
| CC1=C(c2nc(-c3ccc(C#N)cc3)cs2)C(c2ccc3cccc(O)c3n2)NC(=O)N1 (stereo not shown) [Example 23] | < 1 | 50 to 100 | < 1 | ≥ 100 | A (A = TI (TC50/IC50) ≧100.0) | A (A = TI (TC50/IC50) ≧ 100.0) |
| COc1ccc(C2NC(=O)NC(C)=C2c2nc(-c3ccc(C#N)cc3)cs2)cn1 (stereo not shown) [Example 25] | < 1 | ≥ 100 | < 1 | ≥ 100 | A (A = TI (TC50/IC50) ≧100.0) | A (A = TI (TC50/IC50) ≧ 100.0) |
| COc1cncc(C2NC(=O)NC(C)=C2c2nc(-c3ccc(C#N)cc3)cs2)c1 (stereo not shown) [Example 26] | 1 to 5 | ≥ 100 | 5 to 100 | ≥ 100 | C (C < 50.0-10.0) | D (D < 10.0) |
| COc1cccc(C2NC(=O)NC(C)=C2c2nc(-c3ccc(C#N)cc3)cs2)n1 (stereo not shown) [Example 28] | 1 to 5 | ≥ 100 | 1 to 5 | ≥ 100 | B (B < 100.0-50.0) | B (B < 100.0-50.0) |
| CC1=C(c2nc(-c3ccc(C#N)cc3)cs2)C(c2cccnc2F)NC(=O)N1 (stereo not shown) [Example 29] | < 1 | ≥ 100 | < 1 | ≥ 100 | A (A = TI (TC50/IC50) ≧100.0) | A (A = TI (TC50/IC50) ≧ 100.0) |
| CC1=C(c2nc(-c3ccc(C#N)cc3)cs2)C(c2ccncc2F)NC(=O)N1 (stereo not shown) [Example 30] | > 100 | ≥ 100 | > 100 | ≥ 100 | D (D < 10.0) | D (D < 10.0) |
| CC1=C(c2nc(-c3ccccc3)cs2)C(c2cccc(O)c2)NC(=O)N1 (stereo not shown) [Example 33] | 5 to 100 | ≥ 100 | 5 to 100 | 50 to 100 | D (D < 10.0) | D (D < 10.0) |
| CC1=C(c2nc(-c3ccc(Br)cc3)cs2)C(c2cccc(O)c2)NC(=O)N1 (stereo not shown) [Example 35] | 1 to 5 | 50 to 100 | 1 to 5 | 50 to 100 | C (C < 50.0-10.0) | C (C < 50.0 to 10.0) |
| CC1=C(c2nc(-c3ccc4ccccc4c3)cs2)C(c2cccc(O)c2)NC(=O)N1 (stereo not shown) [Example 36] | 5 to 100 | 50 to 100 | 5 to 100 | < 50 | D (D < 10.0) | D (D < 10.0) |
| CC1=C(c2nc(-c3cccc(C#N)c3)cs2)C(c2ccc(O)cc2)NC(=O)N1 (stereo not shown) [Example 67] | – | 50 to 100 | 5 to 100 | – | – | D (D < 10.0) |
| COc1ccc(C2NC(=O)NC(C)=C2c2nc(-c3ccc(C#N)cc3)cs2)cc1O (stereo not shown) [Example 72] | – | ≥ 100 | < 1 | – | – | A (A = TI (TC50/IC50) ≧ 100.0) |
| CC1=C(c2nc(-c3ccc(C)cc3)cs2)C(c2cccc(O)c2)NC(=O)N1 (stereo not shown) [Example 73] | – | 50 to 100 | 5 to 100 | – | – | D (D < 10.0) |
| CC1=C(c2nc(-c3ccc(C(F)(F)F)cc3)cs2)C(c2cccc(O)c2)NC(=O)N1 (stereo not shown) [Example 75] | – | < 50 | 5 to 100 | – | – | D (D < 10.0) |
| CC1=C(c2nc(-c3ccc([N+](=O)[O-])cc3)cs2)C(c2cccc(O)c2)NC(=O)N1 (stereo not shown) [Example 76] | – | ≥ 100 | < 1 | – | – | A (A = TI (TC50/IC50) ≧ 100.0) |
| CC1=C(c2nc(-c3ccc(C#N)cc3)cs2)C(c2cc(C(F)(F)F)cc(C(F)(F)F)c2)NC(=O)N1 (stereo not shown) [Example 77] | – | ≥ 100 | > 100 | – | – | D (D < 10.0) |
| CC1=C(c2nc(-c3ccc(C#N)cc3)cs2)C(c2cc(O)ccc2O)NC(=O)N1 (stereo not shown) [Example 78] | – | ≥ 100 | 5 to 100 | – | – | D (D < 10.0) |
| CC1=C(c2nc(-c3ccc(C#N)cc3)cs2)C(c2ccc(O)c(O)c2)NC(=O)N1 (stereo not shown) [Example 79] | – | ≥ 100 | < 1 | – | – | A (A = TI (TC50/IC50) ≧ 100.0) |
| CC1=C(c2nc(-c3ccc(C#N)cc3C)cs2)C(c2cccnc2F)NC(=O)N1 (stereo not shown) [Example 82] | – | 50 to 100 | < 1 | – | – | A (A = TI (TC50/IC50) ≧ 100.0) |
| CC1=C(c2nc(-c3ccc(C#N)cc3C)cs2)C(c2ccc(Br)nc2)NC(=O)N1 (stereo not shown) [Example 84] | – | < 50 | < 1 | – | – | B (B < 100.0-50.0) |
| COc1ccc(C2NC(=O)NC(C)=C2c2nc(-c3ccc(C#N)cc3C)cs2)cn1 (stereo not shown) [Example 85] | – | < 50 | < 1 | – | – | B (B < 100.0-50.0) |
| CC1=C(c2nc(-c3ccc(C#N)cc3)cs2)C(Cc2ccccc2)NC(=O)N1 (stereo not shown) [Example 88] | – | ≥ 100 | 1 to 5 | – | – | C (C < 50.0 to 10.0) |
| CC1=C(c2nc(-c3ccc(C#N)cc3)cs2)C(Cc2ccc(C)cc2)NC(=O)N1 (stereo not shown) [Example 94] | – | 50 to 100 | 1 to 5 | – | – | C (C < 50.0 to 10.0) |
| CC1=C(c2nc(-c3ccc(F)cc3)cs2)C(Cc2ccc(C)cc2)NC(=O)N1 (stereo not shown) [Example 95] | – | ≥ 100 | > 100 | – | – | D (D < 10.0) |
| CC(C)(C)NC(=O)[C@@H]1CN(Cc2cccnc2)CCN1C[C@@H](O)C[C@@H](Cc1ccccc1)C(=O)N[C@H]1c2ccccc2C[C@H]1O [Indinavir, reference compound] | 0.048 | – | – | > 1 | >21.0 | – |
